Reference: US20230382924A1, “MODULATORS OF CYSTIC FIBROSIS TRANSMEMBRANE CONDUCTANCE REGULATOR” (VERTEX PHARMACEUTICALS INCORPORATED, priority 2020, published 2023)
Like-named read-outs stand apart in the source and are kept apart here. One block for each compound: values may come before it.

Molecular target: CFTR (Homo sapiens, UniProt P13569)
Experiment: Membrane Potential Dye, Enteroid Assay A
Type: cell-based
Settings: for EC50: read-out: Ent. A EC50
In short: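 Signal is reported as % Activity relative to a triple CFTR modulator control (3 μM + 3 μM + 300 nM acute). Read-out: membrane potential fluorescence (20 μM methyl oxonol) monitored for 15 min after chloride-free stimulation. Dye loading took 25 min at room temperature in Bath 1 buffer containing CaCC blockers.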

Chain of CFTR (P13569 with tags, fused parts or gaps DEL508-508): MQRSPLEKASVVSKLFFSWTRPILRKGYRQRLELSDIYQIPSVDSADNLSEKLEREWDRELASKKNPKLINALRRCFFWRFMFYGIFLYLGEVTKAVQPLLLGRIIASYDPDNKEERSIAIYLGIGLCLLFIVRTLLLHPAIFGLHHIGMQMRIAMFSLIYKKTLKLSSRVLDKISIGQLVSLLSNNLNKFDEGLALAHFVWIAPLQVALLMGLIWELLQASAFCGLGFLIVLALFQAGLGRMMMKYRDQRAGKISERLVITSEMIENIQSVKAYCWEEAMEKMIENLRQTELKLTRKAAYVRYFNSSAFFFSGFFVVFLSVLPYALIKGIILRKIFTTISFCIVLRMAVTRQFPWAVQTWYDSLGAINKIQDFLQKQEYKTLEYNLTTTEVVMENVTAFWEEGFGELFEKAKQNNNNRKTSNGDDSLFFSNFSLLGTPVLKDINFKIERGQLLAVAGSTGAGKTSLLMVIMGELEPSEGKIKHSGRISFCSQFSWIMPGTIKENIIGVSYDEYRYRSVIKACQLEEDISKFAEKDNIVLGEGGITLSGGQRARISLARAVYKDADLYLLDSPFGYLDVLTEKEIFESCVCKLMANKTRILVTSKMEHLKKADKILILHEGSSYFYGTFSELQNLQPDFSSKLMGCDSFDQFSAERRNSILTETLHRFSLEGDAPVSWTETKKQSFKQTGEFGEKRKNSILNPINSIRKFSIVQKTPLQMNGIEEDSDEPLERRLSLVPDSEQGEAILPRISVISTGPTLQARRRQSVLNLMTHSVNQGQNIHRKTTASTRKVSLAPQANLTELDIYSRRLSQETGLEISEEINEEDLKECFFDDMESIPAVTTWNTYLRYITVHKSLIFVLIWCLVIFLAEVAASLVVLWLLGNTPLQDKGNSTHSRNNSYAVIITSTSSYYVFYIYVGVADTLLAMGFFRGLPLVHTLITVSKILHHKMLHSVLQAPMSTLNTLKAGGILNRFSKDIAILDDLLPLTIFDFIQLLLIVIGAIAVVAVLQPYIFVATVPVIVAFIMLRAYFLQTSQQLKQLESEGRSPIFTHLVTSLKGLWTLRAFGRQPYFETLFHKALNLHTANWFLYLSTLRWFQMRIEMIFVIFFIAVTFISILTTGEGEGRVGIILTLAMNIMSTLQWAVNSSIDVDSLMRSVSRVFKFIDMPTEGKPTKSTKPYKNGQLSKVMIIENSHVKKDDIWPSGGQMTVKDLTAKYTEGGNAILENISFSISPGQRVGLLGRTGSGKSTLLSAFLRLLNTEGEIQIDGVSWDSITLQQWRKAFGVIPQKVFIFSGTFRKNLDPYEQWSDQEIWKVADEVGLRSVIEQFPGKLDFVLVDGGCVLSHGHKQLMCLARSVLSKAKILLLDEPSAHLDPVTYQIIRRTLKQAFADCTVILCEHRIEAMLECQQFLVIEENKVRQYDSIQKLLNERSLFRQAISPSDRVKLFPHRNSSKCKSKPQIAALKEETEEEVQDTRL

Compound: Cc1cccc(C)c1-c1cc2nc(n1)NS(=O)(=O)c1cccc(c1)C(=O)NCC(C1CCCCC1)O2 (stereo not shown) [Compound 281]
- Ent. A Max Activity (Table 8): +++ (+++ is >60%)
- EC50 (Table 8): < 1 µM

Compound: CC(C)C[C@@H]1COc2cc(C3C(C)CCCC3C)nc(n2)NS(=O)(=O)c2cccc(c2)C(=O)N1 (stereo partly shown) [Compound 301]
- EC50 (Table 8): 3 to 30 µM

Compound: Cc1cccc(C)c1-c1cc2nc(n1)NS(=O)(=O)[C@H]1CCCN(C1)C(=O)N[C@H](CC1CCCCC1)CO2 (stereo in doubt) [Compound 159]
- Ent. A Max Activity (Table 8): + (+ is <30%)

Compound: Cc1cccc(C)c1-c1cc2nc(n1)NS(=O)(=O)c1cccc(c1)C(=O)N[C@H](CCC(F)(F)F)CO2 (stereo in doubt) [Compound 190]
- Ent. A Max Activity (Table 8): +++ (+++ is >60%)
- EC50 (Table 8): < 1 µM

Compound: Cc1cccc(C)c1-c1cc2nc(n1)NS(=O)(=O)c1cccc(c1)C(=O)N[C@@H](C(CC(C)C)c1ccccc1)CO2 (stereo in doubt) [Compound 180]
- Ent. A Max Activity (Table 9): ++ (++ is 30-60%)
- EC50 (Table 9): < 1 µM

Compound: Cc1cccc(C)c1-c1cc2nc(n1)NS(=O)(=O)c1cccc(c1)C(=O)NC1c3ccccc3CC1O2 (stereo not shown) [Compound 489]
- Ent. A Max Activity (Enteroid Assay A): +++ (+++ is >600%)
- EC50 (Enteroid Assay A): < 1 µM

Compound: Cc1cccc(C)c1-c1cc2nc(n1)NS(=O)(=O)c1cccc(c1)C(=O)N[C@@H](CC13CC4CC(CC(C4)C1)C3)CO2 (single isomer, unassigned) [Compound 111, 11-(1-adamantylmethyl)-6-(2,6-dimethylphenyl)-2,2-dioxo-9-oxa-2λ^6-thia-3,5,12,19-tetrazatricyclo[12.3.1.14,8]nonadeca-1(18),4(19),5,7,14,16-hexaen-13-one]
- Ent. A Max Activity (Table 9): ++ (++ is 30-60%)
- EC50 (Table 9): < 1 µM

Compound: Cc1cccc(C)c1-c1cc2nc(n1)NS(=O)(=O)c1cc(cc(C3=CCCCC3)c1)C(=O)N[C@H](CC(C)C)CO2 [Compound 139]
- Ent. A Max Activity (Table 8): + (+ is <30%)

Compound: Cc1cccc(C)c1-c1cc2nc(n1)NS(=O)(=O)c1cccc(c1)C(=O)N[C@H](CC1CCC(F)(F)CC1)CO2 [Compound 187]
- Ent. A Max Activity (Table 8): +++ (+++ is >60%)
- EC50 (Table 8): < 1 µM

Compound: Cc1cccc(C)c1-c1cc2nc(n1)NS(=O)(=O)c1cccc(c1)C(=O)NC[C@H](c1ccc(CCC(C)(C)C)cc1)O2 (stereo in doubt) [Compound 148]
- Ent. A Max Activity (Table 9): ++ (++ is 30-60%)
- EC50 (Table 9): < 1 µM

Compound: Cc1cccc(C)c1-c1cc2nc(n1)NS(=O)(=O)c1cccc(c1)C(=O)N[C@H](CC1CCCCC1)[C@@H](c1ccc(C(C)(C)C)cc1)O2 [Compound 154]
- Ent. A Max Activity (Table 8): +++ (+++ is >60%)
- EC50 (Table 8): < 1 µM

Compound: Cc1cccc(C)c1-c1cc2nc(n1)NS(=O)(=O)c1cccc(c1)C(=O)NCC1(CCN(Cc3ccccc3)CC1)CO2 [Compound 442]
- EC50 (Enteroid Assay A): 3 to 30 µM

Compound: Cc1cccc(C)c1-c1cc2nc(n1)NS(=O)(=O)c1cccc(c1)C(=O)N[C@@H](CC(C)C)CO2 [Compound 491]
- EC50 (Enteroid Assay A): 1 to 3 µM

Compound: Cc1cccc(Cc2ccccc2)c1-c1cc2nc(n1)NS(=O)(=O)c1cccc(c1)C(=O)N[C@H](CC(C)C)CO2 [Compound 168]
- Ent. A Max Activity (Table 9): +++ (+++ is >60%)
- EC50 (Table 9): < 1 µM

Compound: Cc1cccc(C)c1-c1cc2nc(n1)NS(=O)(=O)c1cccc(c1)C(=O)NCC(c1ccc(C3(C(F)(F)F)CC3)cc1)O2 (single isomer, unassigned) [Compound 10, 6-(2,6-dimethylphenyl)-2,2-dioxo-10-[4-[1-(trifluoromethyl)cyclopropyl]phenyl]-9-oxa-2λ^6-thia-3,5,12,19-tetrazatricyclo[12.3.1.14,8]nonadeca-1(18),4(19),5,7,14,16-hexaen-13-one]
- EC50 (Table 8): < 1 µM

Compound: CC(C)C[C@@H]1COc2cc(-c3ncccn3)nc(n2)NS(=O)(=O)c2cccc(c2)C(=O)N1 [Compound 178]
- Ent. A Max Activity (Table 9): + (+ is <30%)

Compound: Cc1cccc(C)c1-c1cc2nc(n1)NS(=O)(=O)c1cccc(c1)C(=O)NCC(C1CCN(C(=O)OC(C)(C)C)CC1)O2 (stereo not shown) [Compound 248]
- Ent. A Max Activity (Table 8): +++ (+++ is >60%)
- EC50 (Table 8): < 1 µM

Compound: CC(C)C[C@@H]1COc2cc(C3CCCCO3)nc(n2)NS(=O)(=O)c2cccc(c2)C(=O)N1 (stereo partly shown) [Compound 313]
- EC50 (Table 8): 3 to 30 µM

Compound: Cc1cccc(C)c1-c1cc2nc(n1)NS(=O)(=O)c1cccc(c1)C(=O)NCC(c1cccc(C#N)c1)O2 (stereo not shown) [Compound 252]
- EC50 (Table 8): 3 to 30 µM

Other lines, results leading:

- Ent. A Max Activity (Enteroid Assay A): +++ (+++ is >600%)
- EC50 (Enteroid Assay A): < 1 µM
Compound: Cc1cccc(C)c1-c1cc2nc(n1)NS(=O)(=O)c1cccc(c1)C(=O)N[C@H](C(C)C)CO2 [Compound 112, (11R)-6-(2,6-Dimethylphenyl)-11-(propan-2-yl)-9-oxa-2λ^6-thia-3,5,12,19-tetraazatricyclo[12.3.1.14,8]nonadeca-1(17),4,6,8(19),14(18),15-hexaene-2,2,13-trione]

- Ent. A Max Activity (Enteroid Assay A): ++ (++ is 30-60%)
Compound: CCCC(NC(=O)OC(C)(C)C)C(=O)N1CCC2(CC1)CNC(=O)c1cccc(c1)S(=O)(=O)Nc1nc(cc(-c3c(C)cccc3C)n1)OC2 (stereo not shown) [Compound 449]

- Ent. A Max Activity (Enteroid Assay A): +++ (+++ is >600%)
- EC50 (Enteroid Assay A): 3 to 30 µM
Compound: Cc1cccc(C)c1-c1cc2nc(n1)NS(=O)(=O)c1cccc(c1)C(=O)NC(C)(C)CO2 [Compound 348]

- Ent. A Max Activity (Table 8): +++ (+++ is >60%)
- EC50 (Table 8): 3 to 30 µM
Compound: Cc1cccc(C)c1-c1cc2nc(n1)NS(=O)(=O)c1cccc(c1)C(=O)NC(CCC1CCOCC1)CO2 (stereo not shown) [Compound 186]

- EC50 (Enteroid Assay A): < 1 µM
Compound: Cc1cccc(C)c1-c1cc2nc(n1)NS(=O)(=O)c1cccc(c1)C(=O)NCC(c1ccccc1)CO2 (stereo not shown) [Compound 201]

- Ent. A Max Activity (Table 8): + (+ is <30%)
Compound: Cc1cccc(C)c1-c1cc2nc(n1)NS(=O)(=O)c1cc(n(C)n1)C(=O)N[C@@H](CC1CCCCC1)CO2 [Compound 359]

- Ent. A Max Activity (Table 8): +++ (+++ is >60%)
- EC50 (Table 8): < 1 µM
Compound: Cc1cccc(C)c1-c1cc2nc(n1)NS(=O)(=O)c1cccc(c1)C(=O)NCC(Cc1ccc(C(C)(C)C)cc1)O2 (stereo not shown) [Compound 243]

- Ent. A Max Activity (Table 8): + (+ is <30%)
Compound: CC(C)C[C@@H]1COc2cc(N3C(C)CCC3C)nc(n2)NS(=O)(=O)c2cccc(c2)C(=O)N1 (stereo partly shown) [Compound 309]

- Ent. A Max Activity (Enteroid Assay A): ++ (++ is 30-60%)
- EC50 (Enteroid Assay A): 3 to 30 µM
Compound: CC(C)C[C@@H]1COc2cc(-c3ccnn3CC(C)C)nc(n2)NS(=O)(=O)c2cccc(c2)C(=O)N1 [Compound 102, (11R)-11-(2-Methylpropyl)-6-[1-(2-methylpropyl)-1H-pyrazol-5-yl]-9-oxa-2λ^6-thia-3,5,12,19-tetraazatricyclo[12.3.1.14,8]nonadeca-1(17),4(19),5,7,14(18),15-hexaene-2,2,13-trione]

- Ent. A Max Activity (Enteroid Assay A): +++ (+++ is >600%)
- EC50 (Enteroid Assay A): < 1 µM
Compound: Cc1cccc(C)c1-c1cc2nc(n1)NS(=O)(=O)c1cccc(c1)C(=O)NCC1(CCCCC1)CO2 [Compound 205]

- Ent. A Max Activity (Table 8): + (+ is <30%)
- EC50 (Table 8): 1 to 3 µM
Compound: Cc1cccc(C)c1-c1cc2nc(n1)NS(=O)(=O)c1cccc(c1)C(=O)N[C@@H](CCC(F)(F)F)CO2 (stereo in doubt) [Compound 189]

- Ent. A Max Activity (Enteroid Assay A): ++ (++ is 30-60%)
- EC50 (Enteroid Assay A): < 1 µM
Compound: Cc1cccc(C)c1-c1cc2nc(n1)NS(=O)(=O)c1cccc(c1)C(=O)NC[C@H](Cc1ccccc1)O2 [Compound 346]

- Ent. A Max Activity (Table 8): + (+ is <30%)
Compound: Cc1cccc(C)c1-c1cc2nc(n1)NS(=O)(=O)c1cccc(c1)C(=O)NC(C(=O)NCc1ccccc1)CO2 (stereo not shown) [Compound 236]

- Ent. A Max Activity (Enteroid Assay A): ++ (++ is 30-60%)
- EC50 (Enteroid Assay A): 1 to 3 µM
Compound: Cc1cccc(C)c1-c1cc2nc(n1)NS(=O)(=O)c1cccc(c1)C(=O)NC1CC(CN(CCC(C)(C)C)C1)O2 (single isomer, unassigned) [Compound 80, 5-(3,3-Dimethylbutyl)-19-(2,6-dimethylphenyl)-2-oxa-15λ^6-thia-5,8,16,18,21-pentaazatetracyclo[15.3.1.13,7.110,14]tricosa-1(20),10,12,14(22),17(21),18-hexaene-9,15,15-trione]

- Ent. A Max Activity (Table 9): + (+ is <30%)
- EC50 (Table 9): < 1 µM
Compound: Cc1cccc(C)c1-c1cc2nc(n1)NS(=O)(=O)c1cccc(c1)C(=O)NCC(c1ccc(CC(C)(C)C)cc1)O2 (stereo not shown) [Compound 264]

- Ent. A Max Activity (Table 8): +++ (+++ is >60%)
- EC50 (Table 8): < 1 µM
Compound: Cc1cccc(C)c1-c1cc2nc(n1)NS(=O)(=O)c1cccc(c1)C(=O)NC(CC1CCCC1)CO2 (stereo not shown) [Compound 188]

- Ent. A Max Activity (Table 8): + (+ is <30%)
- EC50 (Table 8): 3 to 30 µM
Compound: CCC(C)(C)c1ccc(C2CNC(=O)c3cccc(c3)S(=O)(=O)Nc3nc(cc(-c4c(C)cccc4C)n3)O2)cc1 (stereo not shown) [Compound 153]

- Ent. A Max Activity (Table 9): +++ (+++ is >60%)
- EC50 (Table 9): < 1 µM
Compound: Cc1cccc(C)c1-c1cc2nc(n1)NS(=O)(=O)c1cccc(c1)C(=O)N[C@@H]1CN(C3CC4(CCCCC4)C3)CC[C@H]1O2 [Compound 60, (3R,8R)-20-(2,6-Dimethylphenyl)-6-{spiro[3.5]nonan-2-yl}-2-oxa-16λ^6-thia-6,9,17,19,22-pentaazatetracyclo[16.3.1.111,15.03,8]tricosa-1(21),11,13,15(23),18(22),19-hexaene-10,16,16-trione]

- Ent. A Max Activity (Table 9): +++ (+++ is >60%)
- EC50 (Table 9): < 1 µM
Compound: Cc1cccc(C)c1-c1cc2nc(n1)NS(=O)(=O)c1cccc(c1)C(=O)N[C@@H](CC(C)(C)C)[C@H](C)O2 [Compound 130]

- Ent. A Max Activity (Table 9): +++ (+++ is >60%)
- EC50 (Table 9): < 1 µM
Compound: Cc1cccc(C)c1-c1cc2nc(n1)NS(=O)(=O)c1cccc(c1)C(=O)N[C@@H]1CCN(Cc3ccc(C(C)(C)C)cc3)C[C@@H]1O2 (single isomer, unassigned) [Compound 91, 5-[(4-tert-butylphenyl)methyl]-20-(2,6-dimethylphenyl)-2-oxa-16λ^6-thia-5,9,17,19,22-pentaazatetracyclo[16.3.1.111,15.03,8]tricosa-1(21),11(23),12,14,18(22),19-hexaene-10,16,16-trione]

- Ent. A Max Activity (Enteroid Assay A): ++ (++ is 30-60%)
- EC50 (Enteroid Assay A): 1 to 3 µM
Compound: Cc1cccc(C)c1-c1cc2nc(n1)NS(=O)(=O)c1cccc(c1)CNC1C[C@@H](CN(C(=O)OCc3ccccc3)C1)O2 (stereo in doubt) [Compound 192]

- EC50 (Table 8): < 1 µM
Compound: CC(C)C[C@@H]1COc2cc(C3CC4CCC3(C)C4(C)C)nc(n2)NS(=O)(=O)c2cccc(c2)C(=O)N1 (stereo partly shown) [Compound 311]
